The nature of experiment [1]: Basic analgesic test: adjuvans arthritis pain test on the rat, oral administration. The experiment is classed as in vivo, rat (male OFA). Particulars: for ED50: Rattus norvegicus, po, individual component. How it is done:
J. of Pharmacology 31, 207-215 (1975)], e.g. as follows: […] This induces a secondary arthritis of the right hind-paw within the course of the next two or more days. The test for analgesic effectiveness is carried out 16 to 18 days later. A control measurement is carried out 30 minutes prior to administration of the test-substance, by flexing the ankle-joint of the right hind paw three times and recording the number of vocalisations (pain-reaction). […] The confidence limits are determined according to the method of […] Wilcoxon. All tests are carried out blind, employing 5 to 15 animals per test substance.

Experiment [2] in a line: Test for synergism: analgesia 3 hours after oral co-administration, adjuvans arthritis pain test on the rat. The experiment is classed as in vivo, rat (male OFA). How it is done:
In order to establish the presence or absence of synergism the basic analgesic test described above is employed, with analgesia measured three hours after administration of the test substance. Varying proportions of the two test-substance components are used, in fixed dose relationships, based upon the ED50 values previously established for the individual components. The degree of activity is then presented graphically. The test components are administered orally in tragacanth suspension and 5 to 15 animals employed per test run. The two test-components are administered in the following dose relationship: […]
Thus three basic curves may be obtained as shown diagramatically in FIG. 1 in which a curve x represents potentiation (i.e. super-additive synergism), a curve y represents additive synergism and a curve z represents antagonism.

Setting [3] is: 1 hour after administration, read-out: ED50 at 1 hour after administration.
Where [4] appears, read: 3 hours after administration, read-out: ED50 at 3 hours after administration.
Where [5] appears, read: 5 hours after administration, read-out: ED50 at 5 hours after administration.

2 compounds from patent publication US4442084A, “Analgesic and myotonolytic preparations” (Sandoz Ltd., priority 1979, dated 1984) can be followed below.

Read-outs that look alike come from different tables or passages of the source.

On to `Cc1ccc2c(-c3ccc(F)cc3)nc(=O)n(C(C)C)c2c1` [Component A, 1-Isopropyl-4-(4-fluorophenyl)-7-methyl-2(1H)-quinazolinone], for which the ED50 was ~18 mg/kg in experiment [1] (setting [3]), 6.5 mg/kg in experiment [1] (setting [4]) and 7 mg/kg in experiment [1] (setting [5]). In addition, the activity at 6.5 mg/kg in experiment [2] (Rattus norvegicus, po, A 6.5 mg/kg, B 0 p.o. (relative dosage 1 : 0)) is 50%.

Take `Clc1ccc2nsnc2c1NC1=NCCN1` [Component B, 5-chloro-4-(2-imidazolin-2-ylamino)-2,1,3-benzothiadiazole]: the figures for the ED50 in experiment [1] (setting [3]), in experiment [1] (setting [4]) and in experiment [1] (setting [5]) were ~1.8 mg/kg, 3.6 mg/kg and ~10 mg/kg, respectively. Further, the “percentage printed in parentheses beside the ED50 at 5 hours (not explained)” value in experiment [1] (p.o., 5 hours after administration) is recorded as -60%. Moreover, in experiment [2] (A 0, B 3.6 mg/kg p.o. (relative dosage 0 : 1)), the “% activity” value is listed as 50%.
